Experimental data published in the supplement of paper PMC10307832.

How the values were obtained:
Assay in all cases: relative viability (nuclei count vs DMSO), 5 days (fraction); higher = more cells survive
Apatinib + Alpelisib = compound: N#CC1(c2ccc(NC(=O)c3cccnc3NCc3ccncc3)cc2)CCCC1 [Apatinib] + Cc1nc(NC(=O)N2CCC[C@H]2C(N)=O)sc1-c1ccnc(C(C)(C)C(F)(F)F)c1 [Alpelisib] (partner 2 µM)
Method in brief: (§1)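 Relative viability equals treated-well nuclei counts divided by vehicle-well nuclei counts. Counts came from 4× images of lung cancer cell lines grown in 1536-well plates for 5 days after pin-tool dosing on the day after seeding. Dosing used one drug alone or a fixed anchor-drug dose plus five library-drug doses (not always all listed) in √10 steps, and values are medians of duplicate plates.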

Metformin + Tozasertib = compound: CN(C)C(=N)NC(=N)N [Metformin] + Cc1cc(Nc2cc(N3CCN(C)CC3)nc(Sc3ccc(NC(=O)C4CC4)cc3)n2)n[nH]1 [Tozasertib] (partner 0.1 µM)
Method in brief: as §1

Apatinib + Foretinib = compound: N#CC1(c2ccc(NC(=O)c3cccnc3NCc3ccncc3)cc2)CCCC1 [Apatinib] + COc1cc2c(Oc3ccc(NC(=O)C4(C(=O)Nc5ccc(F)cc5)CC4)cc3F)ccnc2cc1OCCCN1CCOCC1 [Foretinib] (partner 0.25 µM)
Method in brief: as §1

Apatinib + Phenformin = compound: N#CC1(c2ccc(NC(=O)c3cccnc3NCc3ccncc3)cc2)CCCC1 [Apatinib] + N=C(N)NC(=N)NCCc1ccccc1 [Phenformin] (partner 250 µM)
Method in brief: as §1

## NCI-H460
Apatinib + Alpelisib; first compound 0.08 µM
  relative viability: 0.557
Apatinib + Alpelisib; first compound 0.253 µM
  relative viability: 0.478
Apatinib + Alpelisib; first compound 0.8 µM
  relative viability: 0.475
Apatinib + Alpelisib; first compound 2.53 µM
  relative viability: 0.498
Apatinib + Alpelisib; first compound 8 µM
  relative viability: 0.479
Metformin + Tozasertib; first compound 31.62 µM
  relative viability: 0.59
Metformin + Tozasertib; first compound 100 µM
  relative viability: 0.645
Metformin + Tozasertib; first compound 316.23 µM
  relative viability: 0.187
Metformin + Tozasertib; first compound 1000 µM
  relative viability: 0.734
Apatinib + Foretinib; first compound 0.08 µM
  relative viability: 0.941
Apatinib + Foretinib; first compound 0.253 µM
  relative viability: 0.943
Apatinib + Foretinib; first compound 0.8 µM
  relative viability: 0.942
Apatinib + Foretinib; first compound 2.53 µM
  relative viability: 1.04
Apatinib + Foretinib; first compound 8 µM
  relative viability: 0.897
Apatinib + Phenformin; first compound 0.08 µM
  relative viability: 0.494
Apatinib + Phenformin; first compound 0.253 µM
  relative viability: 0.479
Apatinib + Phenformin; first compound 0.8 µM
  relative viability: 0.489
Apatinib + Phenformin; first compound 2.53 µM
  relative viability: 0.39
Apatinib + Phenformin; first compound 8 µM
  relative viability: 0.385
